Experimental data from US5110927A (The United States of America as represented by the …, priority 1987, dated 1992).
“Also recorded” adds a separate entry of the source.

What was measured:
[1] = biological target: α1-adrenoceptor (3H-prazosin binding sites); test: displacement of 3H-prazosin from rat cerebral cortical (brain) membranes; conditions: for -logIC50: 3H-prazosin displacement, rat cerebral cortical membranes; for affinity to alpha1-adrenoceptors (in words): discussion of Table 1
Experimental: IC50 values and apparent Ki values were determined as in Table 1.
Rat brain cortices were homogenized in approximately 30 volumes/wet weight of 50 mM Tris buffer, pH 7.4, containing 10 mM MgCl2 by use of a Polytron (setting 6 for 10 seconds). It should be noted that this buffer was used throughout the experimental procedures. The homogenate was centrifuged at 48,000×g for 10 minutes in a Sorvall RC-5B centrifuge. The resulting pellet was resuspended in buffer by use of a Polytron and recentrifuged. This process was repeated and the pellet was resuspended in approximately 200 volumes for affinity studies or 20 volumes for irreversibility experiments.
Specific binding was defined as the difference between total binding (measured in the absence of any ligand) and non-specific binding (measured in the presence of 10 microM phentolamine). Duplicate tubes were used for each condition. Reaction tubes were incubated for 30 minutes at 30° C., then diluted to 5 ml with ice cold buffer, and filtered under reduced pressure through Whatman GF/C glass fiber filters. The reaction tubes and filters were washed three additional times with buffer.

[2] = biological target: α1-adrenoceptor (3H-prazosin binding sites); test: irreversibility experiment: membranes preincubated with compound, washed, assayed for saturation of 3H-prazosin binding; design: species or system rat; conditions: for irreversible blockade / effect on 3H-prazosin binding sites (in words): membranes, preincubation and washing
[3] = test system: alpha1-adrenoceptors and other receptors; conditions: prior art, cited from earlier work
[4] = test system: spontaneously hypertensive rats; conditions: conscious; previously shown; cited from earlier work

Row | SMILES | -logIC50 [1] | affinity to alpha1-adrenoceptors (in words) [1] | further results
1 | COc1cc2nc(N3CCN(C(=S)NC4CCCCC4)CC3)nc(N)c2cc1OC [Compound 30] | 8.27 | decrease | 
2 | COc1cc2nc(N3CCN(C(=O)/C=C/c4ccc(N=[N+]=[N-])cc4)CC3)nc(N)c2cc1OC [Compound 16] | 9.49 | single exception; also recorded: improved the affinity | 
3 | CC(COc1ccccc1)N(CCCl)Cc1ccccc1 (stereo not shown) [phenoxybenzamine, reference compound] |  |  | Kd (KD) of remaining 3H-prazosin binding sites (in words) ([2]; after preincubation and washing): without significant Kd changes in the remaining sites; blockade of 3H-prazosin binding sites by phenoxybenzamine ([2]; brain membranes, FIG. 4): approximately 85%; irreversible blockade / effect on 3H-prazosin binding sites (in words) [2]: block almost all ^3 -prazosin binding sites in brain membranes; receptor specificity (in words) [3]: not very specific
4 | c1c[nH]c(CNCCCCCCNCCSSCCNCCCCCCNCc2ccc[nH]2)c1 [pyrextramine] |  |  | receptor specificity (in words) [3]: block peripheral alpha2 -adrenergic responses as well
5 | COC(=O)/C=C/C(=O)Nc1ccc(CCCCC(=O)N2CCN(c3nc(N)c4cc(OC)c(OC)cc4n3)CC2)cc1 [Compound 42] | 8.07 |  | 
6 | COc1cc2nc(N3CCN(C(=O)[C@@H]4O[C@H]4c4ccccc4)CC3)nc(N)c2cc1OC (relative stereo) [Compound 26] | 7.45 | two orders of magnitude lower than that of cyclopropane | 
7 | COc1cc2nc(N3CCN(C(=O)n4ccnc4)CC3)nc(N)c2cc1OC [Compound 2] | 7.97 | low affinity | 
8 | COc1cc2nc(N3CCN(C(=O)c4cc(Cl)nc(Cl)n4)CC3)nc(N)c2cc1OC [Compound 45] | 7.49 | failed to yield an active compound | 
9 | COc1cc2nc(N3CCN(C(=S)Nc4c(F)c(F)c(F)c(F)c4F)CC3)nc(N)c2cc1OC [Compound 32] | 7.80 |  | 
10 | COc1cc2nc(N3CCN(C(=O)C4CC5C=CC4C5)CC3)nc(N)c2cc1OC (stereo not shown) [Compound 46] | 8.61 | high affinity | 
11 | CCOC(=O)N1c2ccccc2C=CC1OCC (stereo not shown) [N-ethoxycarbonyl-2-ethoxy-1,2-dihydroquinoline] |  |  | concentration required relative to more specific chemoreactive labels ([3]; factor higher): about 10^4; receptor specificity (in words) [3]: receptor specificity of N-ethoxycarbonyl-2-ethoxy-1,2-dihydroquinoline is also low
12 | C/C=C/C=C/C(=O)N1CCN(c2nc(N)c3cc(OC)c(OC)cc3n2)CC1 [Compound 6] | 8.81 | high affinity | irreversible blockade / effect on 3H-prazosin binding sites (in words) [2]: did not irreversibly block alpha1 -adrenoceptors; also recorded: do not attach irreversibly to the receptor
13 | COC(=O)/C=C/C(=O)Nc1ccc(/C=C/C(=O)N2CCN(c3nc(N)c4cc(OC)c(OC)cc4n3)CC2)cc1 [Compound 19] | 7.79 |  | 
14 | COc1cc2nc(N3CCN(C(=S)Nc4cccc(N=C=S)c4)CC3)nc(N)c2cc1OC [Compound 35] | 7.30 |  | 
15 | COc1cc2nc(N3CCN(C(=O)C4=CC5CCC4CC5)CC3)nc(N)c2cc1OC [Compound 48] | 8.4 |  | overall behaviour compared with compound 47 [2]: behaves similarly to 47 in those aspects which were investigated
16 | COc1cc2nc(N3CCN(C(=O)C=Cc4ccc(N=C=S)cc4)CC3)nc(N)c2cc1OC [Compound 17] | 6.99 |  | 
17 | COC(=O)/C=C/C(=O)N1CCN(c2nc(N)c3cc(OC)c(OC)cc3n2)CC1 [Compound 4] | 9.15 |  | 
18 | COc1cc2nc(N3CCN(C(=O)C=Cc4c(F)c(F)c(F)c(F)c4F)CC3)nc(N)c2cc1OC [Compound 14] | 6.94 |  | 
19 | COC(=O)/C=C/C=C/C(=O)N1CCN(c2nc(N)c3cc(OC)c(OC)cc3n2)CC1 [Compound 5] | 8.01 |  | 
20 | COc1cc2nc(N3CCN(C(=O)C4C(C=C(C)C)C4(C)C)CC3)nc(N)c2cc1OC (stereo not shown) [Compound 27] | 7.15 | very low affinity | 
21 | COc1cc2nc(N3CCN(S(=O)(=O)c4ccc(C)cc4)CC3)nc(N)c2cc1OC [Compound 43] | 7.94 | low affinity | 
22 | COc1cc2nc(N3CCN(S(=O)(=O)c4cccs4)CC3)nc(N)c2cc1OC [Compound 44] | 7.47 | low affinity | 
23 | COc1cc2nc(N3CCN(C(=O)c4ccc(N=C=S)c(I)c4)CC3)nc(N)c2cc1OC [Compound 41] | 7.29 | much lower affinity | 
24 | COc1cc2nc(N3CCN(C(=S)Nc4ccccc4)CC3)nc(N)c2cc1OC [Compound 29] |  | much higher affinity for alpha1 -adrenoceptors than prazosin | 
25 | COc1cc2nc(N3CCN(C(=O)[C@@H]4C[C@H]4c4ccccc4)CC3)nc(N)c2cc1OC (relative stereo) [Compound 25] | 9.29 | affinity similar to that of the cinnamoyl compound No. 9 | 
26 | COc1cc2nc(N3CCN(C(=S)Nc4ccc(N=C=S)cc4)CC3)nc(N)c2cc1OC [Compound 34] | 7.18 |  | 

Second part, led by results:

Row | -logIC50 [1] | affinity to alpha1-adrenoceptors (in words) [1] | SMILES | further results
27 | 6.97 |  | COc1cc2nc(N3CCN(C(=O)/C=C/c4ccc(NC(=O)CBr)cc4)CC3)nc(N)c2cc1OC [Compound 18] | 
28 | 7.51 |  | COc1cc2nc(N3CCN(C(=O)C(=Cc4ccccc4)c4ccccc4)CC3)nc(N)c2cc1OC [Compound 22] | 
29 | 7.06 | reduced affinity considerably | COc1cc2nc(N3CCN(C(=O)/C=C/C(=O)c4ccccc4)CC3)nc(N)c2cc1OC [Compound 23] | 
30 | 7.31 | decreased considerably | COc1cc2nc(N3CCN(C(=O)c4ccc5ccccc5c4)CC3)nc(N)c2cc1OC [Compound 24] | 
31 | 7.89 |  | COc1cc2nc(N3CCN(C(=O)C(F)=Cc4ccccc4)CC3)nc(N)c2cc1OC [Compound 20] | 
32 | 7.90 | affinity is considerably decreased | COc1cc2nc(N3CCN(C(=O)COc4ccccc4)CC3)nc(N)c2cc1OC [Compound 8] | 
33 | 7.90 |  | COc1cc2nc(N3CCN(C(=O)C=Cc4ccc(Cl)cc4)CC3)nc(N)c2cc1OC [Compound 11] | 
34 | 8.06 |  | COc1cc2nc(N3CCN(C(=O)C(=Cc4ccccc4)N=[N+]=[N-])CC3)nc(N)c2cc1OC [Compound 21] | 
35 | 7.70 | decrease | COc1cc2nc(N3CCN(C(=S)Nc4ccc(N=[N+]=[N-])cc4)CC3)nc(N)c2cc1OC [Compound 33] | 
36 | 7.43 |  | COC(=O)C=Cc1ccc(NC(=S)N2CCN(c3nc(N)c4cc(OC)c(OC)cc4n3)CC2)cc1 [Compound 37] | 
37 | 7.56 | considerably decreased the affinity | COc1cc2nc(N3CCN(C(=O)Nc4ccccc4)CC3)nc(N)c2cc1OC [Compound 39] | 
38 | 5.27 | low affinity | COc1cc2nc(N3CCN(C(=O)CBr)CC3)nc(N)c2cc1OC [Compound 3] | 
39 | 8.47 |  | COc1ccc(/C=C/C(=O)N2CCN(c3nc(N)c4cc(OC)c(OC)cc4n3)CC2)cc1 [Compound 15] | 
40 | 7.41 |  | COc1cc2nc(N3CCN(C(=S)Nc4cccc5ccccc45)CC3)nc(N)c2cc1OC [Compound 38] | 
41 | 7.01 |  | COc1cc2nc(N3CCN(C(=S)Nc4ccc(NC(=S)N5CC5)cc4)CC3)nc(N)c2cc1OC [Compound 36] | 
42 | 8.47 | affinity is considerably decreased | COc1cc2nc(N3CCN(C(=O)CCc4ccccc4)CC3)nc(N)c2cc1OC [Compound 7] | 
43 | 9.16 |  | COc1cc2nc(N3CCN(C(=O)/C=C/c4ccccc4)CC3)nc(N)c2cc1OC [Compound 9] | irreversible blockade / effect on 3H-prazosin binding sites (in words) [2]: do not attach irreversibly to the receptor; reduction of blood pressure in spontaneously hypertensive rats [4]: capable of reducing blood pressure
44 | 7.92 |  | COc1cc2nc(N3CCN(C(=O)/C=C/c4ccc(F)cc4)CC3)nc(N)c2cc1OC [Compound 10] | 
45 | 7.68 |  | COc1cc2nc(N3CCN(C(=O)C=Cc4cccc(F)c4)CC3)nc(N)c2cc1OC [Compound 13] | 
46 | 7.93 |  | COc1cc2nc(N3CCN(C(=O)c4cccc(CCl)c4)CC3)nc(N)c2cc1OC [Compound 40] | 
47 | 7.10 |  | COc1cc2nc(N3CCN(C(=O)C=Cc4ccc(Br)cc4)CC3)nc(N)c2cc1OC [Compound 12] | 
48 | 7.92 |  | COc1cc2nc(N3CCN(C(=O)C#Cc4ccccc4)CC3)nc(N)c2cc1OC [Compound 28] | 
49 | 8.62 |  | COc1cc2nc(N3CCN(C(=S)Nc4ccc(F)cc4)CC3)nc(N)c2cc1OC [Compound 31] | 
